Reference: PubChem BioAssay (NCI)
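Growth conditions: 96-well plates. Treatment: test compound, 48 hours, 5 concentrations. Analysis: linear interpolation between bracketing concentrations; unreached endpoints set to highest concentration. TGI denotes the concentration required for complete inhibition of growth.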

Tests used:
Experiment in all cases: NCI anticancer screen, dose series, 48 h
ACHN renal = system: ACHN renal
DMS 273 small cell lung = system: DMS 273 small cell lung
KM20L2 colon = system: KM20L2 colon
LXFL 529 NSCLC = system: LXFL 529 NSCLC
OVCAR-8 ovarian = system: OVCAR-8 ovarian
SK-OV-3 ovarian = system: SK-OV-3 ovarian
TK-10 renal = system: TK-10 renal
MOLT-4 leukemia = system: MOLT-4 leukemia
DU-145 prostate = system: DU-145 prostate
MDA-MB-435 = system: MDA-MB-435
MDA-N = system: MDA-N
NCI/ADR-RES ovarian = system: NCI/ADR-RES ovarian

Row | SMILES | TGI (ACHN renal) | TGI (DMS 273 small cell lung) | TGI (KM20L2 colon) | TGI (LXFL 529 NSCLC) | TGI (OVCAR-8 ovarian) | TGI (SK-OV-3 ovarian) | TGI (TK-10 renal) | TGI (MOLT-4 leukemia) | TGI (DU-145 prostate) | TGI (MDA-MB-435) | TGI (MDA-N) | TGI (NCI/ADR-RES ovarian)
1 | O=C1Nc2ccccc2Nc2nc3cccccc-3c21 | > 100 µM | > 100 µM | > 100 µM | > 100 µM | > 100 µM | > 100 µM | > 100 µM | – | – | – | – | –
2 | CC(C)OP(=O)(OC(C)C)/C(=N/N)NNc1ccc([N+](=O)[O-])cc1 | > 100 µM | > 100 µM | > 100 µM | > 100 µM | > 100 µM | – | > 100 µM | > 100 µM | – | – | – | –
3 | CC(C)C(=O)/C=C/c1ccc(Cl)cc1 | 28.5 µM | 14 µM | > 100 µM | 30.4 µM | – | > 100 µM | – | 55.9 µM | – | – | – | –
4 | COC(=O)N/N=C/c1oc(-c2ccccc2)c(-c2ccccc2)c1[N+](=O)[O-] | > 100 µM | > 100 µM | > 100 µM | > 100 µM | > 100 µM | > 100 µM | > 100 µM | > 100 µM | – | – | – | –
5 | N#CC(C#N)=C(N)/C(C#N)=C/c1cc(O)c(O)c(Br)c1 | > 100 µM | > 100 µM | > 100 µM | > 100 µM | > 100 µM | > 100 µM | > 100 µM | > 100 µM | > 100 µM | > 100 µM | > 100 µM | > 100 µM
6 | CSc1ccc2c(cc1=O)C(NC(=O)c1ccc(OC(C)=O)cc1)CCc1cc(O)c(O)c(O)c1-2 (configuration not stated) | > 100 µM | 47.1 µM | > 100 µM | 35.2 µM | 60.2 µM | 98.1 µM | > 100 µM | 28.9 µM | – | – | – | –
7 | O=C(Nc1ccc(Cl)cc1)/C(Cc1cccc[n+]1[O-])=N\Nc1ccc([N+](=O)[O-])cc1[N+](=O)[O-] | > 100 µM | > 100 µM | > 100 µM | > 100 µM | > 100 µM | > 100 µM | > 100 µM | > 100 µM | – | – | – | –
8 | CC[C@@H](C(=O)[C@@H](C)[C@@H](O)[C@H](C)CCc1ccc(C)c(O)c1C(=O)O)[C@H]1O[C@](CC)([C@H]2CC[C@](O)(CC)[C@H](C)O2)C[C@@H]1C | 13.2 µM | 8.1 µM | 11.6 µM | 4.94 µM | 14.3 µM | 10.2 µM | 12.6 µM | 3.12 µM | – | – | – | –
9 | CCCC(=O)OC[n+]1cccc(-c2c(COC(=O)NC(C)C)c(COC(=O)NC(C)C)c3n2CCC3)c1 | > 100 µM | – | – | – | > 100 µM | > 100 µM | > 100 µM | > 83.3 µM | > 100 µM | > 100 µM | > 100 µM | > 100 µM
10 | CCOC(=O)c1cc2c([nH]1)C(=O)CC1=C2CCN1Cc1ccccc1 | 25.6 µM | – | – | – | 46.6 µM | 37.1 µM | 30 µM | 17 µM | 28.6 µM | 27.6 µM | 26.8 µM | 43.5 µM
11 | O=C(O)c1cc(=O)[nH]c(=S)[nH]1 | > 100 µM | – | – | – | > 100 µM | > 100 µM | > 100 µM | > 100 µM | > 100 µM | > 100 µM | > 100 µM | > 100 µM
12 | CC(=O)OC1CC2(c3ccccc3)C(=O)c3ccccc3N2O1 (configuration not stated) | > 100 µM | > 100 µM | > 100 µM | > 100 µM | > 100 µM | > 100 µM | – | > 100 µM | – | – | – | –
13 | CCCCCC(=O)OCC1(CO)C/C(=C\CC(C(C)C)C(C)C)C(=O)O1 (configuration not stated) | > 100 µM | – | – | – | 76.2 µM | > 100 µM | > 100 µM | 61.8 µM | > 100 µM | > 100 µM | > 100 µM | > 100 µM
14 | Cn1cc(C[C@@H](N)C(=O)O)c2ccccc21 | > 100 µM | – | – | – | > 100 µM | > 100 µM | > 100 µM | > 100 µM | > 100 µM | > 100 µM | > 100 µM | > 100 µM
15 | [N-]=[N+]=Nc1c([N+](=O)[O-])c(Cl)nc2ccccc12 | 3.22 µM | – | – | – | 3.98 µM | 27.7 µM | 3.78 µM | 0.89 µM | 5.35 µM | 6.64 µM | 6.56 µM | 6.3 µM
16 | O=C1c2nn(-c3ccccc3)nc2C(c2ccccc2)N1c1ccccc1 (configuration not stated) | > 100 µM | > 100 µM | > 100 µM | > 100 µM | > 100 µM | – | – | > 100 µM | – | – | – | –

Row | SMILES | TGI (ACHN renal) | TGI (DMS 273 small cell lung) | TGI (KM20L2 colon) | TGI (LXFL 529 NSCLC) | TGI (OVCAR-8 ovarian) | TGI (SK-OV-3 ovarian) | TGI (TK-10 renal) | TGI (MOLT-4 leukemia) | TGI (DU-145 prostate) | TGI (MDA-MB-435) | TGI (MDA-N) | TGI (NCI/ADR-RES ovarian)
17 | CCOc1ccc2c(ccc(/C=C\c3cc(C)c4cccnc4c3O)[n+]2C)c1 | 21.4 µM | – | 37 µM | 14 µM | 38.8 µM | 10.4 µM | 6 µM | 10.6 µM | 18.6 µM | 13.3 µM | – | > 100 µM
18 | O=C1c2ccccc2C(=O)N1CCCCCCNOCCCN1C(=O)c2ccccc2C1=O | > 100 µM | – | – | – | > 100 µM | > 100 µM | > 100 µM | 38.7 µM | > 100 µM | 74.7 µM | > 100 µM | 70 µM
19 | c1ccc2c3c([nH]c2c1)C1c2[nH]c4ccccc4c2CCN1CC3 | 27.1 µM | – | – | – | 26.9 µM | 27.1 µM | 23.2 µM | 42.1 µM | 26.1 µM | 33.5 µM | 35.6 µM | 5.47 µM
20 | O=C1C2CCC(C2)C12CC1(c3ccccc3)C(=O)c3ccccc3N1O2 (configuration not stated) | > 100 µM | > 100 µM | > 100 µM | > 100 µM | > 100 µM | > 100 µM | – | > 100 µM | – | – | – | –
21 | CC12CC[C@H](O)C(C)(C)[C@H]1CC[C@](C)(O)C2COc1ccc2ccc(=O)oc2c1 (some centres not stated) | > 100 µM | > 100 µM | > 100 µM | > 100 µM | > 100 µM | > 100 µM | > 100 µM | > 100 µM | – | – | – | –
22 | Cc1ccc(S(=O)(=O)Oc2ccc(OS(=O)(=O)c3ccc(C)cc3)c3c2C(=O)c2ccccc2C3=O)cc1 | > 100 µM | – | – | – | > 100 µM | > 100 µM | > 100 µM | > 100 µM | > 100 µM | > 100 µM | > 100 µM | > 100 µM
23 | CCCN(CCCCN1C(=O)c2ccccc2C1=O)CC1COc2ccccc2O1 (configuration not stated) | > 100 µM | – | – | – | > 100 µM | > 100 µM | > 100 µM | 66.5 µM | > 100 µM | > 100 µM | > 100 µM | > 100 µM
24 | COc1ccc([N-]/C(=N\n2c(=O)c(C)nn(C)c2=S)N(c2ccc(OC)cc2)c2nn3c(=O)c(C)n[n+](C)c3s2)cc1 | > 100 µM | > 100 µM | > 100 µM | > 100 µM | > 100 µM | – | – | > 100 µM | – | – | – | –
25 | N=C(N)n1[nH]c2c(c1=O)CCCC2 | > 100 µM | – | – | – | > 100 µM | > 100 µM | > 100 µM | > 100 µM | > 100 µM | > 100 µM | > 100 µM | > 100 µM
26 | O=c1c2ccccc2nc(-c2ccccc2)n1NC(=S)Nc1ccc(Cl)cc1[N+](=O)[O-] | > 100 µM | > 100 µM | – | > 100 µM | > 100 µM | > 100 µM | > 100 µM | > 100 µM | – | – | – | –
27 | O=[N+]([O-])c1cccc2nc3ccccc3c(NCCCN3CCOCC3)c12 | 0.0506 µM | – | – | – | 0.141 µM | 0.267 µM | 0.149 µM | 24.2 µM | 0.0298 µM | 0.0242 µM | 0.0149 µM | 0.341 µM
28 | CCN1CC2=C(NC(=S)NC2c2cc(OC)c(OC)c(OC)c2)/C(=C/c2cc(OC)c(OC)c(OC)c2)C1 (configuration not stated) | > 100 µM | – | – | – | 61.6 µM | > 100 µM | > 100 µM | > 100 µM | > 100 µM | > 100 µM | > 100 µM | > 100 µM
29 | CC(C)c1cccc(C(C)C)c1NC(=O)C(=O)C(C(=O)c1ccc2ccccc2c1)C1OC(=O)c2ccccc21 (configuration not stated) | > 100 µM | – | – | > 100 µM | – | > 100 µM | – | > 100 µM | – | – | – | –
30 | COc1ccc(C2ON(c3ccccn3)CC=C2C)cc1 (configuration not stated) | > 100 µM | > 100 µM | > 100 µM | > 100 µM | > 100 µM | > 100 µM | – | > 100 µM | – | – | – | –
31 | CC1(C)CN=C(Nc2ccc(Cl)cc2)S1 | > 100 µM | – | – | – | > 100 µM | > 100 µM | > 100 µM | > 100 µM | > 100 µM | > 100 µM | > 100 µM | > 100 µM
